Measurements as given in ChEMBL document CHEMBL5728099, “Thienopyridines and benzothiophenes useful as IRAK4 inhibitors” (2020).
pIC50: −log10 of the molar value.

Target: T1, Interleukin-1 receptor-associated kinase 4 (Homo sapiens, UniProt Q9NWZ3)
T1 sequence (Q9NWZ3 whole entry): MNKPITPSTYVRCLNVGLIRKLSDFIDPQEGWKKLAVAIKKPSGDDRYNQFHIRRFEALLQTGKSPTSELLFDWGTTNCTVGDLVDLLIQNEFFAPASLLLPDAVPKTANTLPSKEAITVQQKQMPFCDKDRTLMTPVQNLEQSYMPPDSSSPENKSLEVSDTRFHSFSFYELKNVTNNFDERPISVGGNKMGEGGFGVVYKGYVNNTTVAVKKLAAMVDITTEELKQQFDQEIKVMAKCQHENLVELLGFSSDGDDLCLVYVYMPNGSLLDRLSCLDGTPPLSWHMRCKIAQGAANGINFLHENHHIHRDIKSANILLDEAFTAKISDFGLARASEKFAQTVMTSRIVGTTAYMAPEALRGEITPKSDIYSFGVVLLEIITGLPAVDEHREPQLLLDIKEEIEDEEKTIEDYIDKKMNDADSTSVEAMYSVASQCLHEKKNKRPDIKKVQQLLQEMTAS
Assay: Inhibition Assay: The assays were performed in U-bottom 384-well plates. The final assay volume was 30 μL prepared from 15 μL additions of enzyme and substrates (fluoresceinated peptide and ATP) and test compounds in assay buffer (20 mM HEPES pH 7.2, 10 mM MgCl2, 0.015% Brij 35 and 4 mM DTT). The reaction was initiated by the combination of IRAK4 with substrates and test compounds. The reaction mixture was incubated at room temperature for 60 min. and terminated by adding 45 μL of 35 mM EDTA to each sample. The reaction mixture was analyzed on the Caliper LABCHIP® 3000 (Caliper, Hopkinton, Mass.) by electrophoretic separation of the fluorescent substrate and phosphorylated product. Inhibition data were calculated by comparison to no enzyme control reactions for 100% inhibition and vehicle-only reactions for 0% inhibition. The final concentrations of reagents in the assays are ATP, 500 μM; FL-IPTSPITTTYFFFKKK peptide 1.5 μM; IRAK4, 0.6 nM; and DMSO, 1.6%.

CC[C@H]1[C@@H](COc2csc3cc(C(N)=O)c(OC)nc23)NC(=O)C1(C)C
pIC50: 6.23
